ChEMBL document CHEMBL3639308, “Substituted naphthyridines and their use as medicaments” (2015)

Biological target: Tyrosine-protein kinase SYK (Homo sapiens, UniProt P43405)

IC50: 1.9 nM
SMILES: COc1cc(-c2cc3ncccc3c(O[C@H](C)[C@H]3CNC(=O)C3)n2)ccc1OC(F)(F)F
